Consider 1 molecule from publication PMC11355195 (Life, 2024).

The experiment deals with T1, COX-1 (Ovis aries, UniProt P05979).
T1 construct: The COX-1 enzyme was produced from ram seminal vesicles; purchased Cayman Chemical Company, Ann Arbor, MI, USA; host or cells: ram seminal vesicles (tissue)
T1 sequence (P05979 25-600): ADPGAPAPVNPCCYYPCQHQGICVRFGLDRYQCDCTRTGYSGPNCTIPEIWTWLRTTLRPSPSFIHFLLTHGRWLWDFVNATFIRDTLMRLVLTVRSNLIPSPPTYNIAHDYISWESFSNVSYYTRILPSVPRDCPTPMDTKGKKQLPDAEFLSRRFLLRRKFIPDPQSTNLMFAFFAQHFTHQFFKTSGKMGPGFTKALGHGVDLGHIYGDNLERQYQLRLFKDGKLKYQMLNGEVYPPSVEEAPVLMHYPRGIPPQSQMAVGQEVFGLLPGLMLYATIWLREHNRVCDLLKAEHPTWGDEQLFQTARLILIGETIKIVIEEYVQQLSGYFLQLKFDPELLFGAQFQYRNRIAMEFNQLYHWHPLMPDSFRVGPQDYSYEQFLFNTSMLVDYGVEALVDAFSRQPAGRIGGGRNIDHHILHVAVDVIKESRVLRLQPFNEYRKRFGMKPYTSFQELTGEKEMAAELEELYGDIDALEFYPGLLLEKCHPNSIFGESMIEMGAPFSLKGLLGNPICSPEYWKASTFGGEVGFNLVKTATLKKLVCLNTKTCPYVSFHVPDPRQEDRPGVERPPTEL
Kind of experiment: COX-1-catalyzed prostaglandin production inhibition. As to conditions: mean ± standard deviation, three replicas; read-out: COX-1 inhibition IC50 (converted). The experiment is classed as biochemical, ram. The procedure:
The COX inhibitory effects of the substances were examined using a COX-1/COX-2-catalyzed prostaglandin production test, using a modified approach by Futaki et al.. The chemicals were dissolved in 4% DMSO to a final concentration of 100 µg/mL.
In this test, one unit of COX-1 or COX-2 enzyme was suspended in a 0.1 M Tris-HCl buffer (pH 7.5) containing hematin ([…]) and phenol (2 mM) as cofactors. The COX-1 enzyme was produced from ram seminal vesicles, while COX-2 was taken from sheep placenta with a purity of 70% (both from Cayman Chemical Company, Ann Arbor, MI, USA). The reaction mixture was preincubated with either the solvent vehicle (4% DMSO) or the test solution for 2 min at 37 °C. […] Arachidonic acid, tagged with radioactive carbon ([1–14C]), serves as a substrate for the COX enzymes. The mixture was then incubated for an additional 2 min at 37 °C. […] The organic solvent phase was removed, and the PGE2 level in the remaining aqueous phase was quantified using a radioimmunoassay with a liquid scintillation counter, which measures the radioactivity (disintegrations per minute, DPM) of the [1–14C]-labeled PGE2. The percentage inhibition of COX-catalyzed prostaglandin production by the test compounds was estimated by comparing the radioactivity of the samples with the solvent vehicle controls. […]

The term IC50 denotes the point on the concentration scale where inhibition reaches its midpoint. In the case of `Cc1ccc(C(C)C)c(O)c1` [Thymol, 2-isopropyl-5-methylphenol], the IC50 is 198 µM.
